Legend:
[1] = system: Sca-1+c-kit-lin- mBM cells; assay: Chemotaxis assay, CXCL12 induced migration of sorted Sca-1+c-kit-lin- mBM cells; assay type: cell-based, mouse; settings: 5 mM Diprotin A
Protocol: (§1) Chemotaxis assays were performed using 96-well chemotaxis chambers (NeuroProbe, Gaithersburg, Md.) in accordance with manufacturer's instructions as described previously with minor variations (Christopherson K W, 2nd, et al. J Immunol. 2002; 169:7000-7008; Christopherson K W, 2nd, et al. Blood. 2001; 98:3562-3568; Christopherson K, 2nd, et al. Immunol Lett. 1999; 69:269-273). Briefly 300 μl of RPMI supplemented with 10% FBS and either 0, 100, 200, and 400 ng/ml of mouse CXCL12 chemokine was added to the lower chamber. Ten-thousand sorted cells in 50 μL of media were added to the upper side of the membrane (5.7 mm diameter, 5 μm pore size, polycarbonate membrane.)
(§2) Total cell number in the lower well was obtained by counting using hemocytometer after 4 hours of incubation at 37° C., 5% CO2. Percent migration was calculated by dividing the number of the cells in the lower well by the total cell input multiplied by 100 and subtracting random migration (always less than 5%) to the lower chamber without chemokine presence. Three samples were analyzed separately in triplicate, and then the data averaged for statistical analysis.
The N-terminal truncated mouse CXCL12 (CXCL12 (amino acids 3-68)) was produced by treatment of mouse CXCL12 with DPPIV (Enzyme Systems Products, Livermore, Calif.) for 18 hrs at 37° C. in PBS pH 7.4. […]

[2] = system: BoyJ recipient mice; assay: Short-term homing of donor Sca-1+lin- cells to recipient bone marrow; assay type: in vivo, mouse
Protocol: Control C57BL/6 (CD45.2^+), CD26 inhibitor treated C57BL/6 (CD45.2^+), or CD26^−/− (CD45.2^+) sorted Sca-1^+lin^− or LD donor BM cells were transplanted by tail-vein injection into lethally irradiated (1100 cGy split dose) congenic BoyJ (CD45.1^+) female recipient mice (Haneline L S, et al. Blood. 1999; 94:1-8.) Contribution of Sca^+lin^− donor cells in the context of Sca-1^+lin^− recipient cells was calculated by flow cytometric analysis of cells found in the recipient mouse BM by measuring CD45.1+ and CD45.2^+ on Sca-1^+lin^− LD cells isolated from the recipient mice 24 hours post transplant. […] Comparisons between treatment groups were made using a two-tailed Student's t-test and data was plotted as mean (M)±standard error of the mean (SEM).

[3] = system: Sca-1+lin- mouse BM cells; assay: Chemotaxis assay, CXCL12 induced migration of Sca-1+lin- mouse BM cells; assay type: cell-based
Protocol: as §1, §2
Inhibition of endogenous CD26/DPPIV activity was accomplished by pretreatment of cells with 5 mM Diprotin A (Peptides International, Louisville, Ky.) for 15 minutes at 37° C. Diprotin A was allowed to remain in the chemotaxis chamber during the assay. […]

[4] = system: C57BL/6 mice; assay: G-CSF induced mobilization of HSC/HPC in C57BL/6 mice (progenitor cell assays of peripheral blood); assay type: in vivo; settings: 5 μmol/mouse 2×/day s.c. alone, without G-CSF
[5] = system: C57BL/6 mice; assay: as above; assay type: in vivo, mouse; settings: inhibitor 5 μmol/mouse 2×/day s.c. during G-CSF mobilization, C57BL/6
Protocol: Mobilization was achieved by treating mice with 2.5 μg (micrograms) G-CSF/mouse 2×/day s.c. for 2 days (Broxmeyer H E, et al. J Exp Med. 1999; 189:1987-1992). Mice simultaneously treated with a specific CD26 inhibitor also underwent treatment with either 5 μmol Diprotin A/mouse 2×/day s.c. for 2 days or 5 μmol Val-Pyr/mouse 2×/day s.c. for 2 days. Diprotin A was obtained commercially (Peptides International, Louisville, Ky.) and Val-Pyr was obtained as a gift from Nicolai Wagtmann (Novo Nordisk, Denmark). After either G-CSF or G-CSF plus CD26 inhibitor treatment peripheral blood cells were collected and total cellular nuclearity was measured and progenitor cell assays were performed using total peripheral blood cells.
One-hundred thousand mouse G-CSF mobilized peripheral blood cells were plated in triplicate for colony formation by CFU-GM, BFU-E, and CFU-GEMM and scored at 7 days incubation as previously described (Cooper S, Broxmeyer H E. Measurement of interleukin-3 and other hematopoietic growth factors, such as GM-CSF, G-CSF, M-CSF, erkythropoietin and the potent co-stimulating cytokines steel factor and FLt-3 ligand. In: Coligan J E K A, Margulies D H, Shevach E M, Strober E, Coico R, ed. Current protocols in immunology. New York: John Wiley & Sons; 1996:6.4.1-6.4.12). Cells were plated for colony formation in 1% methylcellulose culture medium containing 30% FBS, 1 U/ml recombinant(r) human Epo, 0.1 mM Hemin, 5% Pokeweed Mitogen Spleen Conditioned Media (PWMSCM), and 50 ng/ml rmouse Steel Factor (=Stem Cell Factor, SCF).

Ile-Pro-Ile [Diprotin A]
increase in total cell migration ([1]; 100 ng/ml CXCL12): 2.5 fold | increase in total cell migration ([1]; 200 and 400 ng/ml CXCL12): two-fold | increase in homing efficiency ([2]; 1×10^4 sorted Sca-1+lin- BM C57Bl/6 donor cells treated 15 minutes prior to transplant, vs untreated cells): 9 fold | short-term homing of donor cells ([2]; donor LDBM unit treated prior to transplant, P<0.01, n=6): significant increase in short-term homing | increase in CXCL12-induced migratory response ([3]; Diprotin A treated Sca-1+lin- BM cells from C57BL/6 mice): two-fold | effect on CXCL12-induced migration of CD26-/- cells ([3]; Diprotin A treatment of CD26-/- Sca-1+lin- cells compared to untreated CD26-/- cells): no further enhancing effect | effect on the mobilization of progenitors, inhibitor alone [4]: little or no effect | reduction in BFU-E compared to G-CSF alone [5]: 29% | reduction in CFU-GEMM compared to G-CSF alone [5]: 63% | reduction in CFU-GM compared to G-CSF alone [5]: 59%

— patent US20080085264A1, “METHODS FOR ENHANCING STEM CELL ENGRAFTMENT DURING TRANSPLANTATION” (priority 2003, published 2008)
